Laboratory results: PubChem BioAssay (NCI)
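Growth conditions: 96-well plates. Treatment: test compound, 48 hours, 5 concentrations. Analysis: linear interpolation between bracketing concentrations; unreached endpoints set to highest concentration. TGI denotes the concentration required for complete inhibition of growth.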

Key:
Assay in all cases: NCI-60 cell line screen, 48 h
[1] = test system: PC-3 prostate
[2] = test system: MDA-MB-435
[3] = test system: RXF 393 renal
[4] = test system: SR leukemia
[5] = test system: UACC-62 melanoma
[6] = test system: CCRF-CEM leukemia
[7] = test system: CAKI-1 renal
[8] = test system: KM12 colon
[9] = test system: A549 NSCLC
[10] = test system: LOX IMVI melanoma
[11] = test system: HL-60(TB) leukemia
[12] = test system: OVCAR-8 ovarian
[13] = test system: OVCAR-5 ovarian
[14] = test system: OVCAR-4 ovarian
[15] = test system: SNB-19 CNS
[16] = test system: NCI-H23 lung
[17] = test system: 786-0 renal
[18] = test system: SK-MEL-28 melanoma
[19] = test system: M14 melanoma
[20] = test system: BT-549 breast

Question: With `Nc1ccc(S(=O)(=O)Nc2nc3ccccc3nc2Nc2ccc(S(N)(=O)=O)cc2)cc1` as the compound, how does the TGI [1] read?
Answer: > 100 µM

Question: What about the TGI [2] of the same compound?
Answer: > 100 µM

Question: What about the TGI [3] of the same compound?
Answer: 62 µM

Question: And the TGI [4]?
Answer: > 100 µM

Question: And the TGI [5]?
Answer: > 100 µM

Question: And the TGI [6]?
Answer: > 100 µM

Question: And the TGI [7]?
Answer: > 100 µM

Question: What about the TGI [8] of the same compound?
Answer: > 100 µM

Question: And the TGI [9]?
Answer: > 100 µM

Question: And the TGI [10]?
Answer: 38.3 µM

Question: What about the TGI [11] of the same compound?
Answer: 63.2 µM

Question: And the TGI [12]?
Answer: > 100 µM

Question: And the TGI [13]?
Answer: > 100 µM

Question: What about the TGI [14] of the same compound?
Answer: 49.7 µM

Question: What about the TGI [15] of the same compound?
Answer: > 100 µM

Question: And the TGI [16]?
Answer: 48 µM

Question: And the TGI [17]?
Answer: > 100 µM

Question: What about the TGI [18] of the same compound?
Answer: > 100 µM

Question: What about the TGI [19] of the same compound?
Answer: > 100 µM

Question: What about the TGI [20] of the same compound?
Answer: 62.1 µM
